{"source": "patent US5795859A", "about": "(priority 1991, dated 1998)", "key": {"[1]": {"test_system": "Meth A ascites tumour-bearing mice", "assay": "LPS lethality in Meth A ascites tumour-bearing mice", "type": "in vivo", "conditions": "500 μg E.coli LPS, peptide s.c.; survival up to 64 hours; * heightened activity", "protocol": "In LPS experiments polymyxin B, an LPS inhibitor, replaced MAb 47 as a positive control. The number of animals surviving was assessed at intervals up to 64 hours after LPS challenge."}, "[2]": {"test_system": "D-galactosamine sensitized mice", "assay": "TNF toxicity in D-galactosamine sensitized mice", "type": "in vivo", "conditions": "16 mg D-galactosamine and 2 μg human recombinant TNF i.p., peptide s.c.; survival up to 48 hours", "protocol": "The mice were then injected subcutaneously with either test peptide, phosphate buffered saline or neutralizing anti-TN? monoclonal antibody 47."}, "[3]": {"test_system": "bovine aortic endothelial cells", "experimental": "Endothelial cell procoagulant activity (PCA) induction by TNFα was determined using bovine aortic endothelial cells (BAE) according to the procedure of Bevilacqua et al., 1986 PNAS 83, 4522 with the following modifications: BAE cells were propagated in McCoys 5A medium supplemented with 10% FCS, penicillin, streptomycin and L-gutamine in standard tissue culture flasks and 24-well dishes. TNFα treatment of culture (3 μg/ml) was for 4 hours at 37° C. in the presence of growth medium after which the cells were washed and scrape-harvested before being frozen, thawed and sonicated. Total cellular PCA was determined in a standard one-stage clotting assay using normal donor platelet poor plasma to which 100 μl of CaCl2 and 100 μl of cell lystate was added. Statistical significance was determined by unpaired t-test."}, "mice": {"test_system": "mice", "assay": "In vivo TNF toxicity, blood glucose and appearance", "conditions": "10 μg of Peptide 2, 200 μg recombinant human TNF", "experimental": "Appearance parameters which were evaluated included ruffling of fur, touch sensitivity, presence of eye exudate, light sensitivity and diarrhoea.\nNonfasting blood glucose levels were determined on a Beckman Glucose Analyzer 2 (Beckman Instruments) or on a Exectech blood glucose sensor (Clifford Hallam Pty. Ltd)."}}, "note": "Ends that are not written are not given here."}
{"substance": "Ac-PSDKPVA-NH2 [Peptide 29, Ac PRO SER ASP LYS PRO VAL ALA NH2]", "values": [{"measurement": "IN VIVO LPS TOXICITY METH A", "setting": "[1]", "result": "+ (10 animals per group scored positive if 7 or more survive)"}]}
{"substance": "Ac-RTPSDKPVAHV-NH2 [Peptide 30, Ac ARG THR PRO SER ASP LYS PRO VAL ALA HIS VAL NH2]", "values": [{"measurement": "IN VIVO TNF TOXICITY D-GAL", "setting": "[2]", "result": "+ (each group contains 10 animals: scored positive if 6 or more survive)"}, {"measurement": "IN VIVO LPS TOXICITY METH A", "setting": "[1]", "result": "+ (10 animals per group scored positive if 7 or more survive)"}]}
{"substance": "VRSSSRTPSDKPVAHVVA [Peptide 1, VAL ARG SER SER SER ARG THR PRO SER ASP LYS PRO VAL ALA HIS VAL VAL ALA]", "values": [{"measurement": "activation of the respiratory burst", "setting": "human neutrophils", "result": "failed to either activate the respiratory burst"}, {"measurement": "induction of procoagulant activity", "setting": "[3]", "result": "failed to either activate the respiratory burst of human neutrophils (Table 5) or to induce procoagulant activity"}]}
{"substance": "ARG THR PRO SER ASP LYS VAL PRO ALA HIS VAL VAL ALA (RTPSDKVPAHVVA; printed: ARG THR PRO SER ASP LYS VAL PRO ALA HIS VAL VAL ALA) [Peptide 2]", "values": [{"measurement": "TNF toxicity as indicated by blood glucose changes", "setting": "mice", "result": "abrogated TNF toxicity"}, {"measurement": "IN VIVO TNF TOXICITY D-GAL", "setting": "[2]", "result": "+ (each group contains 10 animals: scored positive if 6 or more survive)"}]}
